Results: US20240390340A1 (INCYTE CORPORATION, priority 2023, published 2024)
Like-named read-outs stand apart in the source and are kept apart here.

Tests used:
KRAS G12D = KRAS G12D (Homo sapiens, UniProt P01116, G12D); assay: GDP-GTP exchange assay (bodipy-GDP/GppNHp, SOS1), KRAS G12D; type: biochemical
KRAS G12V = KRAS G12V (Homo sapiens, UniProt P01116, G12V); assay: GDP-GTP exchange assay (bodipy-GDP/GppNHp, SOS1), KRAS G12V; type: biochemical
[1] = bodipy-loaded KRAS G12D 2.5 nM, 4 h pre-incubation, value for the most potent isomer quoted for certain compounds, read-out: G12D (KRAS G12D exchange assay IC50)
[2] = KRAS G12V mutant, value for the most potent isomer quoted for certain compounds, read-out: G12V (KRAS G12V exchange assay IC50)

KRAS G12V, sequence (P01116 1-188 isoform P01116-2 G12V): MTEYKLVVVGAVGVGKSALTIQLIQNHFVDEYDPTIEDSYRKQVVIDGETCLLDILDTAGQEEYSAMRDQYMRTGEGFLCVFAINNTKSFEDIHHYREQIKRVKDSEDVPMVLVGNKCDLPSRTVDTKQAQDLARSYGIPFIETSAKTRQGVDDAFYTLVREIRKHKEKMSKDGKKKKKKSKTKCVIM
KRAS G12D, sequence (P01116 1-188 isoform P01116-2 G12D): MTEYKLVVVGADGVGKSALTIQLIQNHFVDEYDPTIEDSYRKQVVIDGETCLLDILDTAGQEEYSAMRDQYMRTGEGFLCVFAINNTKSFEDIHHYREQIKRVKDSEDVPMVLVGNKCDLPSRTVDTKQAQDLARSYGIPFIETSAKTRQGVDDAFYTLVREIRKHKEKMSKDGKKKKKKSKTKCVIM

SMILES | IC50 (KRAS G12D; [1]) [nM] | IC50 (KRAS G12V; [2]) [nM] | IC50 (KRAS G12D; Table H, column G12D, for compounds isolated as several atropisomers/diastereoisomers the value for the most potent isomer is quoted, read-out: KRAS G12D exchange assay IC50) [nM] | IC50 (KRAS G12V; Table H, column G12V, for compounds isolated as several atropisomers/diastereoisomers the value for the most potent isomer is quoted, read-out: KRAS G12V exchange assay IC50) [nM]
Cc1nc2c(F)c(-c3cccc(Cl)c3Cl)c(CCC#N)cc2c2c1cc([C@H]1C[C@H](Oc3cccnc3C#N)CN1C(=O)C1CC1)n2[C@H]1[C@H]2CN[C@@H]1C2 [Example 294] | ≤ 100 | ≤ 100 | – | –
Cc1c(O[C@H]2C[C@H](c3cc4c(C)nc5c(F)c(-c6cccc(Cl)c6Cl)c(CCC#N)cc5c4n3[C@H]3[C@H]4CN[C@@H]3C4)N(C(=O)C3CC3)C2)ccnc1Cl [Example 295] | ≤ 100 | ≤ 100 | – | –
Cc1nc2c(F)c(-c3cccc(Cl)c3Cl)c(CCC#N)cc2c2c1cc([C@H]1C[C@H](n3nnc(-c4ccncc4)n3)CN1C(=O)C1CC1)n2[C@H]1[C@H]2CN[C@@H]1C2 (atropisomer, axis not shown) [Example 437] | ≤ 100 | ≤ 100 | – | –
Cc1nc2c(F)c(-c3cccc(Cl)c3Cl)c(CCC#N)cc2c2c1cc([C@H]1C[C@H](Oc3cccnc3N)CN1C(=O)C1CC1)n2[C@H]1[C@H]2CN[C@@H]1C2 [Example 288] | ≤ 100 | ≤ 100 | – | –
Cc1nc2c(F)c(-c3cccc(Cl)c3Cl)c(CCC#N)cc2c2c1cc([C@H]1C[C@H](Oc3nccc4ccccc34)CN1C(=O)C1CC1)n2[C@H]1[C@H]2CN[C@@H]1C2 [Example 131] | ≤ 100 | ≤ 100 | – | –
Cc1nc2c(F)c(-c3cccc(Cl)c3Cl)c(CCC#N)cc2c2c1cc([C@H]1C[C@H](OCc3ccnc(C(F)(F)F)c3)CN1C(=O)C1CC1)n2[C@H]1[C@H]2CN[C@@H]1C2 [Example 259] | ≤ 100 | ≤ 100 | – | –
Cc1nc2c(F)c(-c3cccc(Cl)c3Cl)c(CCC#N)cc2c2c1cc([C@H]1C[C@H](OCc3cnnn3C)CN1C(=O)C1CC1)n2[C@H]1[C@H]2CN[C@@H]1C2 [Example 106] | ≤ 100 | ≤ 100 | – | –
Cc1cc(C)cc(CO[C@H]2C[C@H](c3cc4c(C)nc5c(F)c(-c6cccc(Cl)c6Cl)c(CCC#N)cc5c4n3[C@H]3[C@H]4CN[C@@H]3C4)N(C(=O)C3CC3)C2)c1 [Example 123] | ≤ 100 | ≤ 100 | – | –
Cc1nc2c(F)c(-c3cccc(Cl)c3Cl)c(CCC#N)cc2c2c1cc([C@H]1C[C@H](n3cnc(-c4ccccc4)n3)CN1C(=O)C1CC1)n2[C@H]1[C@H]2CN[C@@H]1C2 [Example 349] | ≤ 100 | ≤ 100 | – | –
Cc1nc2c(F)c(-c3cccc(Cl)c3Cl)c(CCC#N)cc2c2c1cc([C@H]1C[C@H](OCc3ccccc3S(C)(=O)=O)CN1C(=O)C1CC1)n2[C@H]1[C@H]2CN[C@@H]1C2 [Example 163] | ≤ 100 | ≤ 100 | – | –
Cc1nc2c(F)c(-c3cccc(Cl)c3Cl)c(CCC#N)cc2c2c1cc([C@H]1C[C@H](Oc3ccc(C(F)(F)F)nc3)CN1C(=O)C1CC1)n2[C@H]1[C@H]2CN[C@@H]1C2 [Example 308] | ≤ 100 | ≤ 100 | – | –
Cc1nc2c(F)c(-c3cccc(Cl)c3Cl)c(CCC#N)cc2c2c1cc([C@H]1C[C@H](OC3CC3)CN1C(=O)C1CC1)n2[C@H]1[C@H]2CN[C@@H]1C2 [Example 230] | ≤ 100 | ≤ 100 | – | –
Cc1ncccc1CO[C@H]1C[C@H](c2cc3c(C)nc4c(F)c(-c5cccc(Cl)c5Cl)c(CCC#N)cc4c3n2[C@H]2[C@H]3CN[C@@H]2C3)N(C(=O)C2CC2)C1 [Example 139] | ≤ 100 | ≤ 100 | – | –
COc1ncnc2c1ccn2[C@H]1C[C@H](c2cc3c(C)nc4c(F)c(-c5cccc(Cl)c5Cl)c(CCC#N)cc4c3n2[C@H]2[C@H]3CN[C@@H]2C3)N(C(=O)C2CC2)C1 [Example 73, 3-(1-((1R,4R,5S)-2-Azabicyclo[2.1.1]hexan-5-yl)-2-((2R,4S)-1-(cyclopropanecarbonyl)-4-(4-methoxy-7H-pyrrolo[2,3-d]pyrimidin-7-yl)pyrrolidin-2-yl)-7-(2,3-dichlorophenyl)-6-fluoro-4-methyl-1H-pyrrolo[3,2-c]quinolin-8-yl)propanenitrile] | – | – | ≤ 100 | ≤ 100
Cc1nc2c(F)c(-c3cccc(Cl)c3Cl)c(CCC#N)cc2c2c1cc([C@H]1C[C@H](n3ccc(N)n3)CN1C(=O)C1CC1)n2[C@H]1[C@H]2CN[C@@H]1C2 [Example 319] | ≤ 100 | ≤ 100 | – | –
